# Experimental data as given in publication PMC11355195 (Life, 2024).
# Columns and labels:
# [1] = DPPH scavenging capacity; conditions: 0.1 mM DPPH
# Method: The method utilized to test the compound’s efficacy in scavenging DPPH radicals was based on protocols detailed in references, with minor changes. The test was completed in duplicate for each concentration. A solution of 0.1 mM DPPH (2,2-diphenyl-1-picrylhydrazyl) was produced, and the compounds were evaluated at different concentrations ranging from 1 to 500 µg/mL. Ascorbic acid served as the positive control with concentrations ranging from 0.01 to 300 µg/mL [35].
# [2] = ABTS scavenging activity
# Description: With a few minor adjustments, the procedure published by Re et al., was used to evaluate the test samples’ capacity to scavenge radicals against the ABTS (2,2′-azinobis-3-ethylbenzothiazoline-6-sulphonate) radical cation.
# [3] = Oxygen radical absorbance capacity (ORAC); conditions: Trolox equivalents
# Method: The ORAC (Oxygen Radical Absorbance Capacity) test was carried out using a modified version of the procedure reported by Huang et al.. This test examines the antioxidant capacity of compounds by examining their ability to neutralize oxygen radicals. The method was carried out utilizing a 96-well microplate format. First, 150 µL of fluorescein solution, produced as 8 × 10^−8 M fluorescein in 0.075 M phosphate buffer (pH 7.4), were dispersed to each well. Fluorescein is a fluorescent probe whose fluorescence lowers when it reacts with radicals. Next, 25 µL of the substance or mixture to be evaluated was added to the corresponding wells. Wells containing 25 µL of phosphate buffer served as blanks, and wells containing 25 µL of Trolox solution (from 10 to 100 µm) were utilized as standards. Control wells containing 50 µL phosphate buffer without any radicals were also added to provide a baseline. The reaction was initiated by adding 25 µL of a freshly produced solution of AAPH (2,2′-azobis(2-methylpropionamidine) dihydrochloride) at a concentration of 165.94 mM in phosphate buffer to each well, except for the control wells, at a temperature of 37 °C. AAPH creates peroxyl radicals that induce oxidative stress in the fluorescein solution, simulating free-radical attack. […] The fluorescence in-tensity of the mixture was then monitored at regular intervals for 120 min.
# [4] = biological target: T1, COX-1 (Ovis aries, UniProt P05979); assay: COX-1-catalyzed prostaglandin production inhibition; format: biochemical, ram
# T1 construct: The COX-1 enzyme was produced from ram seminal vesicles; purchased Cayman Chemical Company, Ann Arbor, MI, USA; host or cells: ram seminal vesicles (tissue)
# T1 sequence (P05979 25-600): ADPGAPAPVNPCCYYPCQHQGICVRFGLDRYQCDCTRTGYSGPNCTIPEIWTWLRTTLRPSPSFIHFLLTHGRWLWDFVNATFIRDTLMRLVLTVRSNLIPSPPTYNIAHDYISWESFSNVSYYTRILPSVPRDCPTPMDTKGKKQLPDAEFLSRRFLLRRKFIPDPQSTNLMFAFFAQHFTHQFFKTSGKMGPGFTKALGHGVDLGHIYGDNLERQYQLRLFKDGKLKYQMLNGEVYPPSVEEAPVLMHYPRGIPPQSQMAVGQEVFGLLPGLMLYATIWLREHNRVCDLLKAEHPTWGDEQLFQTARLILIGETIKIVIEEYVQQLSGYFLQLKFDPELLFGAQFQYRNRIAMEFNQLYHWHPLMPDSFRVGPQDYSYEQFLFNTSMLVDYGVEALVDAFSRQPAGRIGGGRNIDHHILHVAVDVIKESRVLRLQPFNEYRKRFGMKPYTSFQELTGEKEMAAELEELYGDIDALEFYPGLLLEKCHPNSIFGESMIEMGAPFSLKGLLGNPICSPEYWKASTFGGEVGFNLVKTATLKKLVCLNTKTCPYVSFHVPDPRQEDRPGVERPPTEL
# Method: The COX inhibitory effects of the substances were examined using a COX-1/COX-2-catalyzed prostaglandin production test, using a modified approach by Futaki et al.. The chemicals were dissolved in 4% DMSO to a final concentration of 100 µg/mL.
# In this test, one unit of COX-1 or COX-2 enzyme was suspended in a 0.1 M Tris-HCl buffer (pH 7.5) containing hematin ([…]) and phenol (2 mM) as cofactors. The COX-1 enzyme was produced from ram seminal vesicles, while COX-2 was taken from sheep placenta with a purity of 70% (both from Cayman Chemical Company, Ann Arbor, MI, USA). The reaction mixture was preincubated with either the solvent vehicle (4% DMSO) or the test solution for 2 min at 37 °C. […] Arachidonic acid, tagged with radioactive carbon ([1–14C]), serves as a substrate for the COX enzymes. The mixture was then incubated for an additional 2 min at 37 °C. […] The organic solvent phase was removed, and the PGE2 level in the remaining aqueous phase was quantified using a radioimmunoassay with a liquid scintillation counter, which measures the radioactivity (disintegrations per minute, DPM) of the [1–14C]-labeled PGE2. The percentage inhibition of COX-catalyzed prostaglandin production by the test compounds was estimated by comparing the radioactivity of the samples with the solvent vehicle controls. […]
# [5] = system: MCF-7; assay: MTT cell viability, MCF-7; format: cell-based, Human
# Method: (§1) These cell lines were selected to represent distinct sub-types of breast cancer for extensive investigation. […] The medium was added with 10% heat-inactivated fetal calf serum (FCS) to supply vital growth hormones and nutrients necessary for cell proliferation. Additionally, 1% penicillin streptomycin was administered to avoid bacterial contamination, ensuring the sterility and integrity of the cell cultures. The cell cultures were maintained at 37 °C in a humidified environment containing 5% CO2. This controlled environment mimics physiological conditions in the human body, supporting optimal cell development and function. The humidified atmosphere prevents medium evaporation, while the 5% CO2 concentration maintains optimal pH values in the culture medium. These specialized circumstances and methods ensure that the breast cancer cell lines remain healthy and viable for experimental procedures, delivering dependable and reproducible results for research projects. The standard protocols followed for cultivating these cells are crucial for generating consistent and reliable data. Using well-characterized cell lines from a credible source like ATCC ensures the re-liability and comparability of the experimental outcomes.
# (§2) This approach determines cell viability based on the ability of living cells to decrease MTT to a purple, water-insoluble formazan product. Cells were planted in 96-well plates at a density of 1 × 10^4 cells per well in 100 μL of complete culture media, which provides all necessary nutrients for cell growth. […] The cells were then treated with the compounds for 24, 48, and 72 h to determine the effect on cell viability over varied time intervals. Following each incubation time, 20 μL of MTT solution (at a concentration of 5 mg/mL in PBS) were applied to each well. The plates were further incubated for 4 h at 37 °C, during which time live cells decrease the MTT to formazan, creating purple crystals. At the end of the incubation, the medium containing the MTT was carefully aspirated, leaving only the formazan crystals in the bottom of the wells. […]
# [6] = system: MDA-MB-231; assay: MTT cell viability, MDA-MB-231; format: cell-based, Human
# Method: as §1, §2
# [7] = system: MDA-MB-436; assay: MTT cell viability, MDA-MB-436; format: cell-based, Human
# Method: as §1, §2
# [8] = system: MCF-7 cells; conditions: at 24 and 48 h; ref Mari et al. (2021) [78]; read-out: IC50, survival of MCF-7 cells; cited from earlier work
# [9] = system: peripheral blood mononuclear cells (PBMC); assay: MTT cell viability, PBMC (normal cell control); format: cell-based; conditions: MTT test, 72 h of treatment (Figure 3)
# Method: This approach determines cell viability based on the ability of living cells to decrease MTT to a purple, water-insoluble formazan product. Cells were planted in 96-well plates at a density of 1 × 10^4 cells per well in 100 μL of complete culture media, which provides all necessary nutrients for cell growth. […] The cells were then treated with the compounds for 24, 48, and 72 h to determine the effect on cell viability over varied time intervals. Following each incubation time, 20 μL of MTT solution (at a concentration of 5 mg/mL in PBS) were applied to each well. The plates were further incubated for 4 h at 37 °C, during which time live cells decrease the MTT to formazan, creating purple crystals. At the end of the incubation, the medium containing the MTT was carefully aspirated, leaving only the formazan crystals in the bottom of the wells. To dissolve these crystals, 100 μL of DMSO were administered to each well. […] This formula quantifies the reduction in cell viability in response to the treatments compared to the control. […] Cisplatin, a known anticancer drug, was used as a reference drug at varying concentrations from 0.01 to 50 µg/mL.
# [10] = MTT test, 72 h of treatment (Figure 3)
SMILES,DPPH Scavenging Capacity IC50 [1],ABTS Scavenging Activity IC50 [2],Oxygen Radical Absorbance Capacity [3],IC50 [4],"IC50 ([5]; Homo sapiens, MCF7, 72 h, read-out: IC50 Value ± SD, MCF-7)","IC50 ([6]; Homo sapiens, MDA-MB-231, 72 h, read-out: IC50 Value ± SD, MDA-MB-231)","IC50 ([7]; Homo sapiens, MDA-MB-436, 72 h, read-out: IC50 Value ± SD, MDA-MB-436)",IC50 [8],"IC50 Value ± SD, MCF-7 [5, 10]","IC50 Value ± SD, MDA-MB-231 [6, 10]","IC50 Value ± SD, MDA-MB-436 [7, 10]","IC50 Value ± SD, PBMC [9]"
"O=C1O[C@H]([C@@H](O)CO)C(O)=C1O [Ascorbic acid (AA), Ascorbic acid, reference compound]",188.24 ± 6.46 µg/mL,25.20 ± 3.06 µg/mL,,,,,,,,,,
"Cc1ccc(C(C)C)cc1O [Carvacrol, 2-methyl-5-(1-methylethyl)phenol]",,107.88 ± 4.46 µg/mL,3.535 ± 0.127 mmol TE/g,470 µM,5.93 ± 0.77 µg/mL,9.76 ± 0.23 µg/mL,9.5 ± 1.15 µg/mL,200 µM,,,,
"N.N.[Cl][Pt][Cl] [Cisplatin, reference compound]",,,,,,,,,8.43 ± 0.92 µg/mL,4.60 ± 0.66 µg/mL,3.96 ± 0.59 µg/mL,25.36 ± 1.40 µg/mL
